Reference: patent US8614201B2 (Janssen Pharmaceutica NV, priority 2009, dated 2013)

Molecular target: Human TRPA1 (Homo sapiens, UniProt O75762)
Assay: Assay 1: In vitro cellular testing of TRPA1 modulation (CHO-TREx, Fluo-3 calcium fluorescence, AITC agonist)
Format: cell-based
Parameters: expressed in transfected cells; host or cells: CHO-TREx cells (Invitrogen), vector pcDNA4/TO
Conditions: CHO-TREx cells expressing human TRPA1; Fluo-3 fluorescence (FLIPR/Tetra); agonist 15 μM allyl isothiocyanate (AITC); 30 minute antagonist incubation
Method in brief: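 Tetracycline-induced CHO-TREx cells stably expressing human TRPA1, loaded with 4 μM Fluo-3 AM, preincubated 30 min with compound (serial dilution typically from 10 μM, three-fold steps) in HEPES saline pH 7.4. Fluorescence change over 3 min after 15 μM AITC; IC50 from Hill fit versus no-antagonist and 10 μM ruthenium red controls.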

Sequence of Human TRPA1 (O75762 whole entry): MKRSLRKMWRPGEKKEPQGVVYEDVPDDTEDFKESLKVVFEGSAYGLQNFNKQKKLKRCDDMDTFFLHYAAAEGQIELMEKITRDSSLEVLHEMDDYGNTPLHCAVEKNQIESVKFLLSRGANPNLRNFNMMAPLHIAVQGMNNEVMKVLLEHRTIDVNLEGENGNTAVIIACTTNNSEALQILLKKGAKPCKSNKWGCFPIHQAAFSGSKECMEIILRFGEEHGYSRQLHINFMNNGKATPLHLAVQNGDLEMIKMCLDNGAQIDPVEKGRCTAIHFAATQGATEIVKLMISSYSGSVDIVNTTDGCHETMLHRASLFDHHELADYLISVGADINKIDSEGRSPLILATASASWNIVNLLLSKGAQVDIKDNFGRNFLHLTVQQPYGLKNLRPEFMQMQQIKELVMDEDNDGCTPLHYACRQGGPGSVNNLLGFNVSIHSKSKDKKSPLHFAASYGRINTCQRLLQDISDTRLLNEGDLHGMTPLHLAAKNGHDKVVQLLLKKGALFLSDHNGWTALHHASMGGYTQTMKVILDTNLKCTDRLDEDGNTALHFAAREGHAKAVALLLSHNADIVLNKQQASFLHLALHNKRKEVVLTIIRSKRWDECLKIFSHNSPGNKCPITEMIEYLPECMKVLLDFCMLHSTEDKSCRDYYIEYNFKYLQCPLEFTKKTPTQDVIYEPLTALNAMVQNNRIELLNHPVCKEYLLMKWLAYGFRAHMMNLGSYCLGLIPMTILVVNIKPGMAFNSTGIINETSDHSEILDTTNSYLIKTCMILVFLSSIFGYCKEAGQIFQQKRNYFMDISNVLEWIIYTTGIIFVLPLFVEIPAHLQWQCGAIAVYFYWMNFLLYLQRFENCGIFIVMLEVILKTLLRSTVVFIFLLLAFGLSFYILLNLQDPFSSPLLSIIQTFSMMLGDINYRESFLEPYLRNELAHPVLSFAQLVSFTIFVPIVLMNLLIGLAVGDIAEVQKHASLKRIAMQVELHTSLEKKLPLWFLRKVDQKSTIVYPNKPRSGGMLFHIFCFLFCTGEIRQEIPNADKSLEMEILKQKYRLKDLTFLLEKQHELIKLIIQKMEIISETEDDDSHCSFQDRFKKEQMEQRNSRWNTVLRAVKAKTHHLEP

IC50	SMILES
1530 nM	O=C(NCc1cccc(-c2ccc(C(F)(F)F)cc2)c1)[C@@H]1C[C@H](O)CN1S(=O)(=O)c1ccc(F)cc1 [Example 121, (2S,4S)-1-(4-Fluoro-benzenesulfonyl)-4-hydroxy-pyrrolidine-2-carboxylic acid (4′-trifluoromethyl-biphenyl-3-ylmethyl)-amide]
267 nM	O=C(NCc1cccc(-c2ccc(C(F)(F)F)cc2)c1)[C@@H]1C[C@@H](O)CN1S(=O)(=O)c1ccc(F)cc1 [Example 122, (2S,4R)-1-(4-Fluoro-benzenesulfonyl)-4-hydroxy-pyrrolidine-2-carboxylic acid (4′-trifluoromethyl-biphenyl-3-ylmethyl)-amide]
32 nM	O=C(NCc1ccnc(-c2ccc(C(F)(F)F)cc2)c1)[C@@H]1CCCN1S(=O)(=O)c1ccc(F)cc1 [Example 123, 1-(4-Fluoro-benzenesulfonyl)-pyrrolidine-2S-carboxylic acid [2-(4-trifluoromethyl-phenyl)-pyridin-4-ylmethyl]-amide]
11 nM	O=C(NCc1ccnc(-c2ccc(C(F)(F)F)cc2)c1)[C@@H]1CCCN1S(=O)(=O)c1ccc(Cl)s1 [Example 124, 1-(5-Chlorothiophene-2-sulfonyl)pyrrolidine-2S-carboxylic acid [2-(4-trifluoromethylphenyl)-pyridin-4-ylmethyl]-amide]
63 nM	O=C(NCc1ccnc(-c2ccc(C(F)(F)F)cc2)c1)[C@@H]1CC(F)(F)CN1S(=O)(=O)c1ccc(F)cc1 [Example 125, 4,4-Difluoro-1-(4-fluorobenzenesulfonyl)-pyrrolidine-2S-carboxylic acid [2-(4-trifluoromethylphenyl)-pyridin-4-ylmethyl]-amide]
46 nM	O=C(NCc1ccnc(-c2ccc(C(F)(F)F)cc2)c1)[C@@H]1CC(F)(F)CN1S(=O)(=O)c1ccc(Cl)s1 [Example 126, 1-(5-Chlorothiophene-2-sulfonyl)-4,4-difluoropyrrolidine-2S-carboxylic acid [2-(4-trifluoromethylphenyl)-pyridin-4-ylmethyl]-amide]
42 nM	O=C(NCc1ccnc(-c2ccc(C(F)(F)F)cc2)c1)[C@@H]1C=CCN1S(=O)(=O)c1ccc(F)cc1 [Example 127, 1-(4-Fluorobenzenesulfonyl)-2,5-dihydro-1H-pyrrole-2S-carboxylic acid [2-(4-trifluoromethylphenyl)-pyridin-4-ylmethyl]-amide]
49 nM	O=C(NCc1ccnc(-c2ccc(C(F)(F)F)cc2)c1)[C@@H]1C=CCN1S(=O)(=O)c1ccc(Cl)s1 [Example 128, 1-(5-Chlorothiophene-2-sulfonyl)-2,5-dihydro-1H-pyrrole-2S-carboxylic acid [2-(4-trifluoromethylphenyl)-pyridin-4-ylmethyl]-amide]
19 nM	O=C(NCc1ccnc(-c2ccc(OC(F)(F)F)cc2)c1)[C@@H]1CCCN1S(=O)(=O)c1ccc(F)cc1 [Example 129, 1-(4-Fluoro-benzenesulfonyl)-pyrrolidine-2S-carboxylic acid [2-(4-trifluoromethoxy-phenyl)-pyridin-4-ylmethyl]-amide]
6 nM	O=C(NCc1ccnc(-c2ccc(OC(F)(F)F)cc2)c1)[C@@H]1CCCN1S(=O)(=O)c1ccc(Cl)s1 [Example 130, 1-(5-Chloro-thiophene-2-sulfonyl)-pyrrolidine-2S-carboxylic acid [2-(4-trifluoromethoxy-phenyl)-pyridin-4-ylmethyl]-amide]
87 nM	O=C(NCc1ccnc(-c2ccc(OC(F)(F)F)cc2)c1)[C@@H]1CC(F)(F)CN1S(=O)(=O)c1ccc(F)cc1 [Example 131, 4,4-Difluoro-1-(4-fluoro-benzenesulfonyl)-pyrrolidine-2S-carboxylic acid [2-(4-trifluoromethoxy-phenyl)-pyridin-4-ylmethyl]-amide]
117 nM	O=C(NCc1ccnc(-c2ccc(OC(F)(F)F)cc2)c1)[C@@H]1CC(F)(F)CN1S(=O)(=O)c1ccc(Cl)s1 [Example 132, 1-(5-Chloro-thiophene-2-sulfonyl)-4,4-difluoro-pyrrolidine-2S-carboxylic acid [2-(4-trifluoromethoxy-phenyl)-pyridin-4-ylmethyl]-amide]
26 nM	O=C(NCc1ccnc(-c2ccc(OC(F)(F)F)cc2)c1)[C@@H]1C=CCN1S(=O)(=O)c1ccc(F)cc1 [Example 133, 1-(4-Fluoro-benzenesulfonyl)-2,5-dihydro-1H-pyrrole-2S-carboxylic acid [2-(4-trifluoromethoxy-phenyl)-pyridin-4-ylmethyl]-amide]
21 nM	O=C(NCc1ccnc(-c2ccc(OC(F)(F)F)cc2)c1)[C@@H]1C=CCN1S(=O)(=O)c1ccc(Cl)s1 [Example 134, 1-(5-Chloro-thiophene-2-sulfonyl)-2,5-dihydro-1H-pyrrole-2S-carboxylic acid [2-(4-trifluoromethoxy-phenyl)-pyridin-4-ylmethyl]-amide]
22 nM	O=C(NCc1cc(-c2ccc(C(F)(F)F)cc2)ccn1)[C@@H]1CCCN1S(=O)(=O)c1ccc(F)cc1 [Example 135, 1-(4-Fluoro-benzenesulfonyl)-pyrrolidine-2S-carboxylic acid [4-(4-trifluoromethyl-phenyl)-pyridin-2-ylmethyl]-amide]
35 nM	O=C(NCc1cc(-c2ccc(C(F)(F)F)cc2)ccn1)[C@@H]1CCCN1S(=O)(=O)c1ccc(Cl)s1 [Example 136, 1-(5-Chloro-thiophene-2-sulfonyl)-pyrrolidine-2S-carboxylic acid [4-(4-trifluoromethyl-phenyl)-pyridin-2-ylmethyl]-amide]
37 nM	O=C(NCc1cc(-c2ccc(OC(F)(F)F)cc2)ccn1)[C@@H]1CCCN1S(=O)(=O)c1ccc(F)cc1 [Example 137, 1-(4-Fluoro-benzenesulfonyl)-pyrrolidine-2S-carboxylic acid [4-(4-trifluoromethoxy-phenyl)-pyridin-2-ylmethyl]-amide]
17 nM	O=C(NCc1cc(-c2ccc(OC(F)(F)F)cc2)ccn1)[C@@H]1CCCN1S(=O)(=O)c1ccc(Cl)s1 [Example 138, 1-(5-Chloro-thiophene-2-sulfonyl)-pyrrolidine-2S-carboxylic acid [4-(4-trifluoromethoxy-phenyl)-pyridin-2-ylmethyl]-amide]
73 nM	O=C(NCc1cc(-c2ccc(C(F)(F)F)cc2)ccn1)[C@@H]1CC(F)(F)CN1S(=O)(=O)c1ccc(F)cc1 [Example 139, 4,4-Difluoro-1-(4-fluoro-benzenesulfonyl)-pyrrolidine-2S-carboxylic acid [4-(4-trifluoromethyl-phenyl)-pyridin-2-ylmethyl]-amide]
79 nM	O=C(NCc1cc(-c2ccc(C(F)(F)F)cc2)ccn1)[C@@H]1CC(F)(F)CN1S(=O)(=O)c1ccc(Cl)s1 [Example 140, 1-(5-Chloro-thiophene-2-sulfonyl)-4,4-difluoro-pyrrolidine-2S-carboxylic acid [4-(4-trifluoromethyl-phenyl)-pyridin-2-ylmethyl]-amide]
73 nM	O=C(NCc1cc(-c2ccc(OC(F)(F)F)cc2)ccn1)[C@@H]1CC(F)(F)CN1S(=O)(=O)c1ccc(F)cc1 [Example 141, 4,4-Difluoro-1-(4-fluoro-benzenesulfonyl)-pyrrolidine-2S-carboxylic acid [4-(4-trifluoromethoxy-phenyl)-pyridin-2-ylmethyl]-amide]
78 nM	O=C(NCc1cc(-c2ccc(OC(F)(F)F)cc2)ccn1)[C@@H]1CC(F)(F)CN1S(=O)(=O)c1ccc(Cl)s1 [Example 142, 1-(5-Chloro-thiophene-2-sulfonyl)-4,4-difluoro-pyrrolidine-2S-carboxylic acid [4-(4-trifluoromethoxy-phenyl)-pyridin-2-ylmethyl]-amide]
10 nM	O=C(NCc1cc(-c2ccc(C(F)(F)F)cc2)ccn1)[C@@H]1C=CCN1S(=O)(=O)c1ccc(F)cc1 [Example 143, 1-(4-Fluoro-benzenesulfonyl)-2,5-dihydro-1H-pyrrole-2S-carboxylic acid [4-(4-trifluoromethyl-phenyl)-pyridin-2-ylmethyl]-amide]
22 nM	O=C(NCc1cc(-c2ccc(C(F)(F)F)cc2)ccn1)[C@@H]1C=CCN1S(=O)(=O)c1ccc(Cl)s1 [Example 144, 1-(5-Chloro-thiophene-2-sulfonyl)-2,5-dihydro-1H-pyrrole-2S-carboxylic acid [4-(4-trifluoromethyl-phenyl)-pyridin-2-ylmethyl]-amide]
28 nM	O=C(NCc1cc(-c2ccc(OC(F)(F)F)cc2)ccn1)[C@@H]1C=CCN1S(=O)(=O)c1ccc(F)cc1 [Example 145, 1-(4-Fluoro-benzenesulfonyl)-2,5-dihydro-1H-pyrrole-2S-carboxylic acid [4-(4-trifluoromethoxy-phenyl)-pyridin-2-ylmethyl]-amide]
52 nM	O=C(NCc1cc(-c2ccc(OC(F)(F)F)cc2)ccn1)[C@@H]1C=CCN1S(=O)(=O)c1ccc(Cl)s1 [Example 146, 1-(5-Chloro-thiophene-2-sulfonyl)-2,5-dihydro-1H-pyrrole-2S-carboxylic acid [4-(4-trifluoromethoxy-phenyl)-pyridin-2-ylmethyl]-amide]
92 nM	O=C(NCc1cc(-c2ccc(C(F)(F)F)cc2)ncn1)[C@@H]1CCCN1S(=O)(=O)c1ccc(Br)cc1 [Example 147, 1-(4-Bromobenzenesulfonyl)-pyrrolidine-2S-carboxylic acid [6-(4-trifluoromethylphenyl)-pyrimidin-4-ylmethyl]-amide]
28 nM	O=C(NCc1cc(-c2ccc(C(F)(F)F)cc2)ncn1)[C@@H]1CCCN1S(=O)(=O)c1ccc(F)c(F)c1 [Example 148, 1-(3,4-Difluorobenzenesulfonyl)-pyrrolidine-2S-carboxylic acid [6-(4-trifluoromethylphenyl)-pyrimidin-4-ylmethyl]-amide]
